# Assays:
# Assay type in all cases: physicochemical
# [1] = Particle size distribution by laser diffraction (dry powder)
# Protocol: The particle size distribution of powder samples (crystals, coated crystals) was determined using a laser diffraction analyzer (Malvern Mastersizer 3000, Worcestershire, United Kingdom) connected to Aero S dry powder dispersion, as this technique enables measurement in the range between 100 nm and 3500 μm. Approximately 2-3 g of sample was put into the dosing device, air pressure was set to 1.2 bar for coated crystals and granulates (for micronized paracetamol the dispersing air pressure was set to 3.0 bar). Measurement was performed automatically when obscuration was in a range between 0.5 and 5%. Background measurements were performed for 10 seconds and the stabilization time delay before initialization (time before measurements after the desired obscuration was achieved) was set to 3 seconds and measurement duration to 5 seconds respectively. The nonspherical measurement mode approximation was used to determine the particle size distribution for paracetamol crystals and coated crystals. A refraction index and absorption rate for paracetamol were set to 1.62 and 0.01 respectively. The distribution results were expressed as three values: d10, where 10% of the particle population lies below the measured value; d50, the median value; and d90, where 90 percent of the population lies below the measured value.
# [2] = Sessile drop water contact angle on compressed plates; set-up: key to Observed sweling: — = not measurable; * = observed; ** = fast swelling; *** = very fast swelling; settings: for Δ θ: decrease of water contact angle from 0 s to 30 s; for Observed sweling: during contact angle measurement; for θ at time 0 s (st. deviation) / θ at time 30 s (st. deviation): sessile drop water contact angle, 3 μL drop, flat surface plate, room temperature
# Protocol: The water contact angle on compressed powders of the different polymers used as the first coating layer, trehalose and erythritol was measured with a Kruss sessile drop contact angle meter DSA100 (Krυss, Germany) at room temperature. 200 mg of powder was compressed with a Specac hydraulic press (Kent, England) with a 10 s dwell time at a pressure of 4×10^8 Pa. A circular punch and dye assembly (12 mm diameter) with polished stainless steel round punches were used for compression. At least six repetitions on three different plates of the same polymer or other two excipients were performed to ensure the reproducibility of results. Measurements were performed with 3 μL water drop and video recording (software DSA 1.90.0.14 Krυss, Germany) that enabled the determination of contact angles at time zero and 30 seconds later. Contact angles at these two-time points together with visual observation of surface swelling were taken as relevant parameters for polymers differentiation. In the same manner, trehalose and erythritol were also analyzed.
# [3] = Dissolution of coated paracetamol crystals in water (taste masking, non-compendial); settings: 100 mL purified water, room temperature
# Protocol: A non-compendial test was performed in order to simulate the taste masking efficinecy of polymer coat during drug sipping. Pure paracetamol crystals were used as reference material. 100 mL of purified water was transferred in an Erlenmeyer flask on a magnetic stirrer at room temperature. The test formulation containing 250 mg of paracetamol was suspended in the Erlenmeyer flask and aliquotes of 5.0 mL were withdrawn at intervals of 0.5, 1.0, 1.5, 2.0, 2.5, 3.0 and 5.0 minutes (±15% tolerance limit for time) and replaced with an equal volume of purified water (freshwater, maintained at the same temperature) at each sampling point. Samples were immediately filtered using 0.45 μm RC syringe filters.
# Samples were appropriately diluted and analyzed by HPLC. The amount of drug release was calculated from a standard calibration curve, which was prepared on the day of the experiment.
# [4] = Example 3, coated crystals 250-500 μm, milled erythritol, final granules from high shear mixer
# [5] = laser diffraction, Comparative Example 1 and Example 2
"d10 [1, 4]","d50 [1, 4]","d90 [1, 4]",Δ θ [2],Observed sweling [2],θ at time 0 s (st. deviation) [2],θ at time 30 s (st. deviation) [2],"d10 [1, 5]","d50 [1, 5]","d90 [1, 5]",Structure (SMILES),dissolution rate in water [3]
7 μm,46 μm,108 μm,0 °,—,0 °,0 °,,,,"OC[C@@H](O)[C@@H](O)CO [Erythritol, erythritol]",
,,,,,,,208 μm,458 μm,772 μm,"CC(=O)Nc1ccc(O)cc1 [Paracetamol—large crystals, uncoated, paracetamol]",dissoves much faster than from coated particles
,,,,,,,5 μm,32 μm,152 μm,"CC(=O)Nc1ccc(O)cc1 [Paracetamol—milled, uncoated, paracetamol]",
,,,4.8 °,—,13.4 (1.9) °,8.6 (2.0) °,,,,"OC[C@H]1O[C@H](O[C@H]2O[C@H](CO)[C@@H](O)[C@H](O)[C@H]2O)[C@H](O)[C@@H](O)[C@@H]1O [Trehalose, trehalose]",

# — patent publication US20230072164A1, “GRANULAR PHARMACEUTICAL PRODUCT FOR ORAL ADMINISTRATION FROM A PRE-FILLED STRAW AND METHOD OF MANUFACTURING SUCH PHARMACEUTICAL PRODUCT” (ALTERNO LABS D.O.O., priority 2020, published 2023)
